In data set [1] the target is Sterol 14-alpha demethylase (Trypanosoma cruzi (strain CL Brener)) (UniProt Q7Z1V1). The data set is described as follows: Binding affinity to Trypanosoma cruzi CYP51 at 5 to 10 uM by 96-well based UV-vis spectroscopic method.
Data set [2] deals with Trypanosoma cruzi. The data set is described as follows: Antitrypanosomal activity against Trypanosoma cruzi Tulahuen strain C2C4 amastigote forms infected in rat L6 cells after 96 hrs by CPRG/Nonidet reagent based photometric method. In kind it is functional, organism-based. Particulars: Tulahuen strain C2C4, L6, 96 h.
The test system of data set [3] is Leishmania donovani. The data set is described as follows: Antileishmanial activity against Leishmania donovani MHOM/ET/67/L82 axenic amastigotes after 72 hrs by alamar blue staining based fluorescence assay. The settings on record: MHOM/ET/67/L82, 72 h. The data set is classed as functional, organism-based. In general terms: The colour change of resazurin is a common sign of viable cells or microbes.

In data set [4] the test system is Plasmodium falciparum. The data set is described as follows: Antiprotozoal activity against erythrocytic stage of chloroquine and pyrimethamine resistant Plasmodium falciparum K1 assessed as reduction in [3H]-hypoxanthine incorporation preincubated for 24 hrs followed by [3H]-hypoxanthine addition measured after 24 hrs by scintillation counting method. The data set is classed as functional, organism-based.

Data set [5] can be described thus: Selectivity index, ratio of CC50 for rat L6 cells to IC50 for Leishmania donovani MHOM/ET/67/L82 axenic amastigotes. In kind it is toxicity. The settings on record: read-out: Ratio CC50/IC50.
Data set [6] in a line: Selectivity index, ratio of CC50 for rat L6 cells to IC50 for Trypanosoma cruzi Tulahuen strain C2C4 amastigote forms infected in rat L6 cells. In kind it is toxicity, cell-based. The settings on record: read-out: Ratio CC50/IC50.
Data set [7] concerns Trypanosoma brucei rhodesiense. The experiment in a line: Antiprotozoal activity against Trypanosoma brucei rhodesiense STIB900 trypomastigote after 72 hrs by Alamar Blue assay. In kind it is functional, organism-based. Particulars: STIB900, 72 h.
Data set [8] in a line: Selectivity index, ratio of CC50 for rat L6 cells to IC50 for erythrocytic stage of chloroquine and pyrimethamine resistant Plasmodium falciparum K1. In kind it is toxicity. Particulars: read-out: Ratio CC50/IC50.
A short description of data set [9]: Cytotoxicity against rat L6 cells after 72 hrs by alamar blue staining based fluorescence assay. The data set is classed as cell-based.
A short description of data set [10]: Selectivity index, ratio of CC50 for rat L6 cells to IC50 for Trypanosoma brucei rhodesiense STIB900 trypomastigote. In kind it is toxicity. The settings on record: read-out: Ratio CC50/IC50.
For data set [11], the system named is Trypanosoma cruzi. The data set is described as follows: Antitrypanosomal activity against luciferase-expressing Trypanosoma cruzi CL Brener infected in Balb/c mouse assessed as reduction in parasitemia at 2.5 mg/kg, ip bid for 4 days by bioluminescence assay relative to control. In kind it is functional. On the set-up: scale not given: the % may be the effect or the level left.

In data set [12] the test system is Trypanosoma cruzi. The experiment in a line: Potency index, ratio of benznidazole IC50 to test compound IC50 for Trypanosoma cruzi Tulahuen strain C2C4 amastigote forms infected in rat L6 cells. In kind it is functional.
Data set [13] deals with Mus musculus. The data set is described as follows: Toxicity in Balb/c mouse infected with Trypanosoma cruzi CL Brener assessed as weight loss at 25 mg/kg, ip bid for 4 days measured during compound dosing. The data set is classed as organism-based. Particulars: in vivo, 96 h.
The subject of data set [14] is Mus musculus. The experiment in a line: Toxicity in Balb/c mouse infected with Trypanosoma cruzi CL Brener assessed as hunched posture at 25 mg/kg, ip bid for 4 days measured during compound dosing. The data set is classed as organism-based. Particulars: in vivo, 96 h.
Data set [15] concerns Mus musculus. The data set is described as follows: Toxicity in Balb/c mouse infected with Trypanosoma cruzi CL Brener assessed as reduction in mobility at 25 mg/kg, ip bid for 4 days measured during compound dosing. In kind it is organism-based. The settings on record: in vivo, 96 h.
In data set [16] the target is Sterol 14-alpha demethylase (Trypanosoma cruzi (strain CL Brener)) (UniProt Q7Z1V1). The experiment in a line: Binding affinity to Trypanosoma cruzi CYP51 by quartz cuvette based UV-vis spectroscopic method.
Data set [17] has as its system Mus musculus. The experiment in a line: Toxicity in Balb/c mouse infected with Trypanosoma cruzi CL Brener assessed as lack of grooming at 25 mg/kg, ip bid for 4 days measured during compound dosing. The data set is classed as organism-based. The settings on record: in vivo, 96 h.

We go through 11 compounds from ChEMBL document CHEMBL4270551, “Biological evaluation and structure-activity relationships of imidazole-based compounds as antiprotozoal agents” (Eur J Med Chem, 2018).

Each structure is given as a SMILES string. The source made the active and inactive calls. The rule behind the calls is not given here.

Sequence of Sterol 14-alpha demethylase (Trypanosoma cruzi (strain CL Brener)) (Q7Z1V1 whole entry, looked up): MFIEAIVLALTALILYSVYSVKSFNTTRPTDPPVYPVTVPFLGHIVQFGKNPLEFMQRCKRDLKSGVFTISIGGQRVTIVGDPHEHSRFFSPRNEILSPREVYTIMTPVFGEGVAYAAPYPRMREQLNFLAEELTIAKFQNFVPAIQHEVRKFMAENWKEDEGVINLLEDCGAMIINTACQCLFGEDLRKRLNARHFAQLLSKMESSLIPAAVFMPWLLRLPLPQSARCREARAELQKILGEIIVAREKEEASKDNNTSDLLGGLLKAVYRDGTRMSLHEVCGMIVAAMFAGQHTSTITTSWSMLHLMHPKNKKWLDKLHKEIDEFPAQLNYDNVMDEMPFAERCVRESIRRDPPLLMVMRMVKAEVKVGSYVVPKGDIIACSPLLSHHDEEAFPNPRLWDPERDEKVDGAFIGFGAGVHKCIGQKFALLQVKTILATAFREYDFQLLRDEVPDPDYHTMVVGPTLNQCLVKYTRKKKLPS

A word on the IC50: it is the midpoint of a concentration-inhibition curve. As usually defined, the CC50 is the concentration that lowers cell viability or growth by half. `Clc1ccc(C(c2c[nH]cc2-c2ccc(Cl)c(Cl)c2)n2ccnc2)c(Cl)c1` (stereo unspecified): the result in [1] was Active. The IC50 worked out at 0.021 µM in [2], 4.6 µM in data set [3], 0.14 µM in data set [4] and 12.5 µM in data set [7]. Also, the values for the selectivity ratio in data set [5], in [6] and in [8] were 1, 173 and 26, respectively. This compound also showed a CC50 at 72 h in data set [9] of 3.64 µM.

In the case of `Clc1ccc(-c2c[nH]cc2C(c2ccc(Cl)cc2Cl)n2ccnc2)c(Cl)c1` (stereo unspecified), the outcome in data set [1] was Active. The 50% inhibitory concentration (IC50) in data set [2] was found to be 0.034 µM; in data set [3] it was 1.19 µM; in data set [4] it was 0.18 µM; in data set [7], 10.5 µM. Further, the selectivity ratio in [5] came to 8; in data set [6] it was 290; in [8], 55. This compound yielded a CC50 at 72 h in data set [9] of 9.86 µM.

Consider `Cc1ccc(C(c2ccn(-c3ccc(F)cc3)c2)n2ccnc2)cc1` (stereo unspecified), for which the IC50 in [2] came out at 2.96 µM; in data set [3], 27.6 µM; in data set [4], 2.17 µM; in data set [7], 15.8 µM. In addition, the selectivity ratio in [10] came out at 4; in data set [5], 2; in data set [6] it was 21; in data set [8] it was 28. This compound also registered a CC50 at 72 h in data set [9] of 60.6 µM.

Consider `Cn1cc(-c2ccc(Cl)cc2)c(C(c2ccc(Cl)cc2Cl)n2ccnc2)c1` (stereo unspecified), for which the result in data set [1] and in [16] was Active. Besides, the IC50 in data set [2] was determined as 0.002 µM; in data set [3] it was 4.3 µM; in data set [4], 0.17 µM; in data set [7] it was 36.5 µM. Besides, the Activity in [11] is 98.5%; in [13], “Non-Toxic”; in [14] it was “Non-Toxic”; in [15] it was “Non-Toxic”; in data set [17] it was “Non-Toxic”. Further, the selectivity ratio in data set [5] was 1; in data set [6], 2620; in [8], 31. In addition, the “Ratio IC50” value in data set [12] was 825. The half-maximal cytotoxic concentration (CC50) at 72 h in data set [9] was 5.23 µM.

Regarding `Fc1ccc(C(c2ccn(-c3ccc(Cl)cc3)c2)n2ccnc2)cc1` (stereo unspecified), the IC50 came to 3.75 µM in data set [2], 15.8 µM in data set [3], 3.98 µM in data set [4] and 36.7 µM in data set [7]. Besides, the selectivity ratio in [10] turned out to be 2; in data set [5], 4; in data set [6], 17; in data set [8] it was 16. This compound also gave a CC50 at 72 h in [9] of 63.1 µM.

For the compound `N#Cc1ccc(-c2c[nH]cc2C(c2ccc(Cl)cc2Cl)n2ccnc2)cc1` (stereo unspecified), the IC50 in data set [2] is 10 µM; in data set [3], 8.75 µM; in data set [4], 0.66 µM; in data set [7], 11.7 µM. The selectivity ratio was found to be 1 in [10], 2 in data set [5], 2 in [6] and 23 in [8]. For the same compound, the CC50 at 72 h in data set [9] came to 15 µM.

Take `Fc1ccc(-n2ccc(C(c3ccccc3)n3ccnc3)c2)cc1` (stereo unspecified): the IC50 in [2] was 6.14 µM; in [3], 31.5 µM; in data set [4], 5.36 µM; in data set [7] it was 20.4 µM. For the same compound, the selectivity ratio in data set [10] stood at 5; in [5] it was 3; in data set [6], 17; in data set [8], 19. For the same compound, in data set [9], it took 104 µM to reach half-maximal cytotoxicity (CC50 at 72 h).

As for `Fc1ccc(-n2ccc(C(c3ccc(Cl)cc3)n3ccnc3)c2)cc1` (stereo unspecified), the half-inhibitory concentration (IC50) in data set [2] amounted to 3.3 µM; in [3], 10.4 µM; in [4], 3.16 µM; in data set [7], 16.9 µM. For the same compound, the selectivity ratio was 3 in data set [10], 5 in [5], 14 in [6] and 15 in data set [8]. Further, in [9], the CC50 at 72 h turned out to be 47.5 µM.

Turning to `Clc1ccc(C(c2c[nH]cc2-c2ccc(-c3ccncc3)cc2)n2ccnc2)c(Cl)c1` (stereo unspecified), the IC50 in data set [2] was determined as 2.42 µM; in [3] it was 7.52 µM; in data set [4] it was 0.29 µM; in [7], 9.74 µM. In addition, the selectivity ratio is 2 in [10], 2 in data set [5], 6 in data set [6] and 53 in data set [8]. The compound further gave a CC50 at 72 h in data set [9] of 15.5 µM.

As for `Fc1ccc(C(c2ccn(-c3ccc(F)cc3)c2)n2ccnc2)cc1` (stereo unspecified), the IC50 amounted to 4.53 µM in data set [2], 45.9 µM in [3], 4.44 µM in data set [4] and 43.8 µM in data set [7]. Further, the selectivity ratio in [10] was determined as 2; in data set [5], 2; in data set [6], 19; in [8] it was 20. The cytotoxic concentration (CC50) at 72 h in data set [9] is 87.1 µM.

`Clc1ccc(-c2c[nH]cc2C(c2ccc(Cl)cc2Cl)n2ccnc2)cc1` (stereo unspecified): the result in [1] was Active. Also, the IC50 in data set [2] was 0.035 µM; in data set [3] it was 3.77 µM; in [4] it was 0.16 µM; in [7], 17.3 µM. Moreover, the selectivity ratio is 3 in data set [5], 275 in data set [6] and 60 in data set [8]. This compound yielded a CC50 at 72 h in data set [9] of 9.61 µM.
